Entries after “also recorded” stand apart in the source; their conditions may differ.
How the values were obtained:
CYP2A6 = target: T1, CYP2A6 (Homo sapiens, UniProt P11509); assay: Cytochrome P450 isoform inhibition in human hepatic microsomes, coumarin (Example 18); conditions: positive control 250 μM; VC 32.0 ± 1.4
T1 sequence (P11509 1-494): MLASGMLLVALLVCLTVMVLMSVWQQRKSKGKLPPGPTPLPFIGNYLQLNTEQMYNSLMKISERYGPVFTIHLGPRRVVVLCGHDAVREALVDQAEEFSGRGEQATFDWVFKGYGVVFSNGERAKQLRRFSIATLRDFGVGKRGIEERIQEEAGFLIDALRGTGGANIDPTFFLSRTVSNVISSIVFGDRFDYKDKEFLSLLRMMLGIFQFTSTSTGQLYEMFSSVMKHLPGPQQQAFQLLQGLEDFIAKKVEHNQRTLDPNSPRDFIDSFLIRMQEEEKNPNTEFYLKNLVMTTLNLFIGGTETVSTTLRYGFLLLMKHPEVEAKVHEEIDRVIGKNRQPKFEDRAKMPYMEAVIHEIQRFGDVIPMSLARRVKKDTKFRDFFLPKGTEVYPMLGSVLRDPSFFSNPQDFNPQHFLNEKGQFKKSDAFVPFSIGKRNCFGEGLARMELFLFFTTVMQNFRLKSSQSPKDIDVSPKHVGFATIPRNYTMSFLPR

Zucker fatty rats [1] = assay: Oral glucose challenge in Zucker fatty rats (Example 10); type: in vivo; conditions: racemate 100 mg/kg, enantiomers 50 and 100 mg/kg; for incremental glucose area under the curve (AUC) vs control, in words: single oral dose
Description: (§1) Prior to treatment, rats were assigned to 6 groups based on body weight. Each treatment group consisted of 8 rats. […] The gavage volume was 10 ml/kg. All rats received an oral glucose challenge (1.9 g/kg) 5.5 hours after the treatment and 4 hours after withdrawal of the food. Blood samples were taken at 0, 15, 30, 60, 90, 120, and 180 minutes following the glucose challenge for plasma glucose measurement. […] On day 5, rats received the intravenous insulin (0.75 U/kg) 5.5 hours after the last dose and 4 hours after withdrawal of the food. Blood samples were taken at 3, 6, 9, 12, 15 and 18 minutes following the insulin injection for plasma glucose measurement.

Zucker fatty rats [2] = assay: Short insulin tolerance test in Zucker fatty rats (Example 10); type: in vivo; conditions: 50 mg/kg/day for 5 days
Description: as §1

[3] = tested on: Zucker Diabetic Fatty rats; assay: Lipid lowering activity in Zucker Diabetic Fatty rats (Example 11); type: in vivo; conditions: ZDF rats; for plasma cholesterol course during treatment, in words: 13 days, racemate 50 mg/kg/day; for plasma cholesterol course during treatment, in words / difference in plasma cholesterol between control and treated groups, in words: enantiomers 25 mg/kg/day; for difference in plasma cholesterol between control and treated groups, in words: experiment I, 7 and 13 days
Description: Male Zucker diabetic fatty (ZDF) rats were obtained from GMI Laboratories (Indianapolis, Ind.) at 9 weeks of age. Vehicle or enantiomers of halofenate administered by oral gavage on a daily basis starting at 74 days of age. Initial blood samples were obtained for analysis one day before treatment and at the indicated times in the treatment protocol. Blood was analyzed for plasma triglyceride and cholesterol by standard techniques.

ZDF rats = assay: Plasma glucose in ZDF rats, (−) versus (+) halofenate (Example 13); type: in vivo; conditions: 50 mg/kg oral once a day for 3 days
Description: Male 8-9 week old ZDF rats were purchased from Genetic Models, Inc. (Indianapolis, Ind.). […] Rats that had 4-hour fasting plasma glucose levels between 200 and 500 mg/dL were used. […] The gavage volume was 5 ml/kg. Blood samples were taken at 5 hours post dose on day 2 and 3.

[4] = tested on: oxonic acid induced hyperuricemic rats; assay: Plasma uric acid in oxonic acid induced hyperuricemic rats (Example 17); type: in vivo; conditions: oxonic acid hyperuricemic SD rats, oral 50 mg/kg for 3 days, 100 mg/kg on day 4, 6 hours post gavage
Text: Male SD rats, weight 275-300 g were purchased from Charles River. […] To establish a hyperuricemic state, animals were put on a diet containing 2.5% (w/w) of oxonic acid (Sigma Chemical Co, St. Louis, Mo., USA) throughout the experiment. Oxonic acid elevates plasma uric acid by inhibiting uricase. Rats were screened for plasma uric acid levels 3 days after they were placed on the diet, and those that had extreme plasma uric acid levels were excluded. Rats were assigned to one of three groups and the mean uric acid levels were equivalent in each group. […] Oxonic acid was delivered in a liquid formulation containing 0.9% (w/v) methylcellulose. The gavage and injection volumes were 5 ml/kg. Blood samples were taken at 6 hours post oral gavage on day 4. Plasma uric acid levels were determined colorimetrically using the Infinity Uric Acid Reagent (Sigma Chemical Co, St. Louis, Mo., USA).

diabetic ob/ob mice [5] = assay: Glucose and insulin lowering on daily oral administration for 5 days in ob/ob mice (Example 9)
Description: Animals were housed (4-5 mice/cage) under standard laboratory conditions at 22° C. and 50% relative humidity, and were maintained on a diet of Purina rodent chow and water ad libitum. Prior to treatment, blood was collected from the tail vein of each animal. Mice that had non-fasting plasma glucose levels between 300 and 520 mg/dL were used. Each treatment group consisted of 10 mice that were distributed so that the mean glucose levels were equivalent in each group as the start of the study. […] The gavage volume was 10 ml/kg. Blood samples were taken at 3, 6, 27, 30 and 120 hour after the first dose and analyzed for plasma glucose and insulin. The animals were fasted overnight (14 hours) before the 120 hours sampling. Plasma glucose concentrations were determined calorimetrically using glucose oxidase method (Sigma Chemical Co, St. Louis, Mo., USA). Plasma insulin concentrations were determined by using the Rat Insulin RIA Kit from Linco Research Inc. (St. Charles, Mo., USA). Significance difference between groups (comparing drug-treated to vehicle-treated) was evaluated using Student unpaired t-test.

diabetic ob/ob mice [6] = assay: Time course of glucose-lowering after a single oral dose in ob/ob mice (Example 8); type: in vivo; conditions: single oral dose 250 mg/kg; for onset and duration of glucose-lowering action, in words: 250 mg/kg
C57BL/6J db/db mice = assay: Prevention of diabetes and alleviation of hypertriglyceridemia in db/db mice (Example 15); type: in vivo; conditions: 150 mg/kg/day in chow, 9 weeks; for plasma triglyceride levels with age, in words: 150 mg/kg/day
Description: Blood samples were taken at 8-10 AM once a week for 9 weeks under non-fasting condition. Food intake and body weight were measured every 1-3 days. Plasma glucose and triglyceride concentrations were determined calorimetrically using kits from Sigma Chemical Co (No. 315 and No. 339, St. Louis, Mo., USA). Plasma insulin levels were measured using RIA assay kit purchased from Linco Research (St. Charles, Mo.).

[7] = 250 mg/kg/day oral, listed as (+) enantiomer, 250 mg/kg/day
[8] = 250 mg/kg/day oral, listed as (−) enantiomer, 250 mg/kg/day

N[C@@H]1C[C@H]1c1ccccc1 (racemic) [TRAN, tranylcypromine]
Coumarin 7-HC Production (CYP2A6): 0.00 ± 0.00 pmol/mg protein/min

CC(=O)NCCOC(=O)C(Oc1cccc(C(F)(F)F)c1)c1ccc(Cl)cc1 (single isomer, unassigned; (+)) [(+) halofenate, (+) 2-Acetamidoethyl 4-Chlorophenyl-(3-trifluoromethylphenoxy)-acetate, reference compound]
incremental glucose area under the curve (AUC) vs control, in words (Zucker fatty rats [1]): not statistically significant
insulin sensitivity (slope of decline in glucose after i.v. insulin), in words (Zucker fatty rats [2]): small effect on insulin sensitivity that was not significantly different from the vehicle-treated control
lowering of plasma triglyceride vs control at 7 days, in words ([3]; 37.5 mg/kg/day (High dose)): significant lowering of plasma triglyceride
days of treatment with significant plasma cholesterol decrease vs control ([3]; 37.5 mg/kg/day (High dose), 37.5 mg/kg/day): after 7 days but not after 14 days
plasma cholesterol course during treatment, in words [3]: remained relatively constant
plasma glucose compared to vehicle-treated animals, in words (ZDF rats): failed to reduce plasma glucose concentrations
plasma uric acid levels vs vehicle, in words [4]: lowered plasma uric acid levels, but it was not statistically significant
overnight fasting plasma insulin after 5 days, in words (diabetic ob/ob mice [5]; 125 mg/kg/day oral, listed as (+) enantiomer, 125 mg/kg/day): did not lower plasma insulin
overnight fasting plasma insulin after 5 days, in words (diabetic ob/ob mice [5]; [7]): decrease in plasma insulin
time points with reduced plasma insulin vs control (diabetic ob/ob mice [5]; [7]): greatest extent of reduced plasma insulin was noted at 27 and 30 hours

CC(=O)NCCOC(=O)C(Oc1cccc(C(F)(F)F)c1)c1ccc(Cl)cc1 (single isomer, unassigned; (-)) [(−) halofenate, (−) 2-acetamidoethyl 4-chlorophenyl-(3-trifluoromethylphenoxy)-acetate]
glucose lowering compared with the (+) enantiomer at 3 hour and 24 hour time points (diabetic ob/ob mice [6]): more effective and significantly different (p<0.05) from the (+) enantiomer
onset and duration of glucose-lowering action, in words (diabetic ob/ob mice [6]): more rapid onset and sustained longer
onset and duration of glucose-lowering action, in words (diabetic ob/ob mice [6]; listed as (−) enantiomer): most rapid onset of action and the longest duration of action
plasma glucose after oral glucose challenge, in words (Zucker fatty rats [1]; single oral dose 5.5 hours before challenge): most effective in lowering the glucose; also recorded: greatest degree of glucose-lowering of all the treated animals
incremental glucose area under the curve (AUC) vs control, in words (Zucker fatty rats [1]): significant reductions in the glucose area; also recorded: Significant changes (p<0.05)
insulin sensitivity (slope of decline in glucose after i.v. insulin), in words (Zucker fatty rats [2]): improved significantly; also recorded: significantly more insulin sensitive
days of treatment with significant plasma cholesterol decrease vs control ([3]; 12.5 mg/kg/day (Low dose)): 7 days
plasma triglyceride levels, in words ([3]; 37.5 mg/kg/day (High dose)): lowest triglyceride levels of all the treatment groups
lowering of plasma triglyceride vs control at 7 days, in words ([3]; 37.5 mg/kg/day (High dose), listed as (−) enantiomer of halofenate, 37.5 mg/kg/day): greater magnitude
lowering of plasma triglyceride vs control at 7 days, in words ([3]; 37.5 mg/kg/day (High dose), listed as (−) enantiomer, 37.5 mg/kg/day): significant lowering of plasma triglyceride
plasma cholesterol course during treatment, in words [3]: plasma cholesterol declined with treatment
extent of plasma cholesterol lowering, in words ([3]; 14 days, 37.5 mg/kg/day (High dose)): greatest extent of cholesterol lowering
difference in plasma cholesterol between control and treated groups, in words [3]: significant decrease in plasma cholesterol
difference in plasma cholesterol between control and treated groups, in words ([3]; listed as (−) enantiomer): most active of the species tested
plasma glucose compared to vehicle-treated animals, in words (ZDF rats): significantly reduced plasma glucose concentrations
increase of plasma glucose levels with age, in words (C57BL/6J db/db mice): prevented or significantly delayed
plasma insulin concentration with age, in words (C57BL/6J db/db mice): maintained the plasma insulin concentration
plasma triglyceride levels with age, in words (C57BL/6J db/db mice): alleviated hyperlipidemia
plasma triglyceride levels with age, in words (C57BL/6J db/db mice; listed as (−) Halofenate): alleviated the increase of plasma triglyceride concentration
plasma uric acid levels vs vehicle, in words [4]: significantly reduced plasma uric acid levels
overnight fasting plasma insulin after 5 days, in words (diabetic ob/ob mice [5]; 125 mg/kg/day oral, listed as (−) enantiomer, 125 mg/kg/day): Significantly lower plasma insulins
time points with significant plasma glucose reduction vs control (diabetic ob/ob mice [5]; 250 mg/kg/day oral, 250 mg/kg/day): also active at 3 hours
overnight fasting plasma insulin after 5 days, in words (diabetic ob/ob mice [5]; [8]): Significantly lower plasma insulins
time points with reduced plasma insulin vs control (diabetic ob/ob mice [5]; [8]): greatest extent of reduced plasma insulin was noted at 27 and 30 hours

Reference: US20040039053A1, “Use of(-) (3-halomethylphenoxy) (4-halophenyl) acetic acid derivatives for treatment of insulin resistance, type 2 diabetes, hyperlipidemia and hyperuricemia” (priority 2000, published 2004)
